The text below walks through data of article PMC9920246, “Entinostat-Bortezomib Hybrids against Multiple Myeloma” (Molecules, 2023).

The test system of one experiment is RPMI 8226 cells. Description: Antiproliferative assay (XTT, 72 h). The class given is cell-based, human. The following applies: Homo sapiens; RPMI 8226 cells, 72 h, XTT, mean ± SD, n = 3.
Another experiment concerns RPMI 8226/BTZ100 cells. Nature of the experiment: cells. The class given is cell-based, human.
Experiment [1] relates to 3D co-culture spheroids containing RPMI 8226 cells and mesenchymal stem cells (MSC) in a 5:1 ratio. Nature of the experiment: Antiproliferative assay in 3D co-culture spheroids (CellTiter-Glo 3D, 48 h). The following applies: Homo sapiens, RPMI 8226 + MSC 5:1 spheroids, mean ± SD, n = 3. The class given is cell-based, human. The method, then: The multiple myeloma human plasma cells RPMI 8226 were purchased from American Type Culture Collection (ATCC, Manassas, VA, USA) and cultured in RPMI 1640 medium (Gibco, Paisley, UK) supplemented with 50 µg/mL streptomycin sulfate, 50 U/mL penicillin G sodium salt (Gibco, Grand Island, NY, USA) and 10% fetal bovine serum (FBS) (Biowest, Nuaillé, France). […] Human MSC from the bone marrow were purchased from PromoCell and were cultured in Mesenchymal Stem Cell Growth Medium 2 (PromoCell, Heidelberg, Germany) supplemented with 100 μg/mL streptomycin sulfate and 100 U/mL penicillin G sodium salt.
RPMI 8226 cells and MSC were mixed in a 5:1 ratio. The cell mixture was centrifuged, and medium containing 20% collagen I (Gibco) adjusted to pH 7 was added to the cell pellet. Five μL drops were plated in each well of an ice-cold 96-well ultra-low attachment U-bottom plate (Corning, Kennebunk, MA, USA) and the plate was incubated for 30 min at 37 °C and 5% CO2 atmosphere. After the incubation, 200 μL of RPMI 1640 medium (Gibco) supplemented with 50 µg/mL streptomycin sulfate, 50 U/mL penicillin G sodium salt (Gibco) and 10% FBS (Biowest) was added to each well. The 3D spheroids were formed after 48 h.
RPMI 8226 and RPMI 8226/BTZ100 cells were seeded in 96-well plates (Costar, Kennebunk, MA, USA) at a density of 15,000 cells per well and directly treated for 72 h with the various compounds using increasing concentrations (0.31–2000 nM). […] Following the treatment, 100 μL of medium was carefully removed from each well and collagenase (1.5 μL of a 100 mg/mL solution, Sigma) was added. The plate was shaken at 37 °C for 10 min at 350 rpm. Then, 100 μL of CellTiter-Glo 3D reagent (Promega, Fitchburg, WI, USA) was added to each well. The plate was incubated for 5 min at 37 °C under agitation at 250 rpm, followed by 25 min at room temperature without agitation. Finally, the luminescence was measured using a Cytation 3 plate reader (BioTek). The percentage of cell proliferation and calculation of the IC50 value were determined as previously described. Each compound was tested in triplicate in three independent experiments.

Experiment [2] is described as follows: Drug combination of Ent and BTZ, antiproliferative effect (Combenefit, CompuSyn). The class given is cell-based. As to conditions: read-out: IC50 in drug combination experiment. The method, then: Combinations were evaluated using Combenefit data analysis.
Statistical analysis was performed in GraphPad Prism 9 (GraphPad) using one-way ANOVA for the proteasome inhibition assay. Combenefit (Cancer Research UK Cambridge Institute, Cambridge, UK) and CompuSyn software were used for drug combination analyses. The CI was calculated through the Chou-Talalay method using Compusyn. Data are expressed as mean ± standard deviation (SD).

With `CC(C)C[C@H](NC(=O)[C@H](Cc1ccccc1)NC(=O)c1cnccn1)B(O)O` [BTZ, bortezomib], the IC50 with RPMI 8226 cells stood at 2.1 ± 0.4 nM; in the experiment on RPMI 8226/BTZ100 cells (Homo sapiens, RPMI-8226, 72 h, read-out: IC50 Value Antiproliferative Activity RPMI 8226/BTZ100), 245 ± 11.1 nM; in experiment [1], 6.4 ± 1.6 nM; in experiment [2], 3.3 nM. In addition, the “Increased resistance (RPMI 8226/BTZ100 vs. RPMI 8226)” value in the experiment on RPMI 8226/BTZ100 cells is recorded as 116.8 fold.
